Assay results as given in patent US20220356186A1, “PERK INHIBITING PYRROLOPYRIMIDINE COMPOUNDS” (HiberCell, Inc., priority 2019, published 2022).
Read-outs that look alike come from different tables or passages of the source.

Key:
[1] = system: GFP-eIF2α in HEK293 cells; assay: PERK cellular assay, TR-FRET in HEK293-EGFP-eIF2a cells after tunicamycin-induced ER stress; type: cell-based; settings: HEK293-EGFP-eIF2a cells, tunicamycin 2 hours, read-out: Cellular eIF2α IC50
Outline: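 Compounds were added 30 min before a 2 h tunicamycin ([…]) challenge of lentivirally made GFP-eIF2α HEK293 cells, 5000/well; lysate TR-FRET ratio was the read-out.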

[2] = biological target: T1, EIF2AK3 (PERK) catalytic domain (amino acids 536-1116) (Homo sapiens, UniProt Q9NZJ5); assay: PERK in vitro activity assay (isolated), TR-FRET kinase assay; type: biochemical; settings: isolated PERK enzyme, 1.5 μM ATP; read-out: Biochemical IC50
T1 construct: EIF2AK3 (PERK) catalytic domain (amino acids 536-1116)
T1 sequence (Q9NZJ5 536-1116): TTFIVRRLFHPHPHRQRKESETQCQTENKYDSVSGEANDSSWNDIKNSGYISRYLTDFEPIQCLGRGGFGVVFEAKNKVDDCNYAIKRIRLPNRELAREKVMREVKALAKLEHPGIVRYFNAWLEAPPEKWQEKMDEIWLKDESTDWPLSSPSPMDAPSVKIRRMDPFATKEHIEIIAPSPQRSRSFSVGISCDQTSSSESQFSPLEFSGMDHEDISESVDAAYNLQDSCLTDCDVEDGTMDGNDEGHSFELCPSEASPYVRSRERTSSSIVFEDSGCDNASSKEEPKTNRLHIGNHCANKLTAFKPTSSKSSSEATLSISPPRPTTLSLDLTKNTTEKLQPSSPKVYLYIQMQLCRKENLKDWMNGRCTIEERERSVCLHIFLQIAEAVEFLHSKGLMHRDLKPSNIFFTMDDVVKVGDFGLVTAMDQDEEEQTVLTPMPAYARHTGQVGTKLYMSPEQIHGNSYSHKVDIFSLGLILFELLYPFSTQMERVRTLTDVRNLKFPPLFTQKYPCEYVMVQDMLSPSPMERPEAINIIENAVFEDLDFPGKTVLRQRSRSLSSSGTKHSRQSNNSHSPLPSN
Outline: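 TR-FRET read-out: after EDTA stop (10 mM final), Tb-labelled phospho-eIF2a antibody (2 nM) for 90 min; IC50 via 4-parameter nonlinear fit. Reaction: PERK aa 536-1116, GFP-eIF2a 100-200 nM, HEPES pH 7.5 with MgCl2/EGTA/Brij-35, 45 min, room temperature, started by enzyme.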

SMILES: Cc1cc(NC(=O)Cc2cccc(C(C)C)c2)ccc1-c1cn(C)c2ncnc(N)c12 [Example 148, N-(4-(4-amino-7-methyl-7H-pyrrolo[2,3-d]pyrimidin-5-yl)-3-methylphenyl)-2-(3-isopropylphenyl)acetamide]
- IC50 ([1]; Homo sapiens, HEK293, 2 h): 0.101 to 0.25 µM
- IC50 [2]: 0.001 to 0.025 µM

SMILES: CCc1cccc(C(O)C(=O)Nc2ccc(-c3cn(C)c4nc(C)nc(N)c34)c(C)c2)c1 (centres unmarked) [Example 43, N-(4-(4-amino-2,7-dimethyl-7H-pyrrolo[2,3-d]pyrimidin-5-yl)-3-methylphenyl)-2-(3-ethylphenyl)-2-hydroxyacetamide]
- IC50 [1]: 0.001 to 0.025 µM
- IC50 [2]: 0.001 to 0.025 µM

SMILES: Cc1cc(NC(=O)Cc2cncc3ccccc23)ccc1-c1cn(C)c2ncnc(N)c12 [Example 155, N-(4-(4-amino-7-methyl-7H-pyrrolo[2,3-d]pyrimidin-5-yl)-3-methylphenyl)-2-(isoquinolin-4-yl)acetamide]
- IC50 ([1]; Homo sapiens, HEK293, 2 h): 0.101 to 0.25 µM
- IC50 [2]: 0.026 to 0.05 µM

SMILES: Cc1nc(N)c2c(-c3cnc(NC(=O)C(O)c4cccc(F)c4)cc3C)cn(C)c2n1 (centres unmarked) [Example 134, N-(5-(4-amino-2,7-dimethyl-7H-pyrrolo[2,3-d]pyrimidin-5-yl)-4-methylpyridin-2-yl)-2-(3-fluorophenyl)-2-hydroxyacetamide]
- IC50 [1]: 0.101 to 0.25 µM
- IC50 [2]: 0.001 to 0.025 µM

SMILES: Cc1cc(NC(=O)C(N)c2ccccc2)ccc1-c1cn(C)c2ncnc(N)c12 (centres unmarked) [Example 27, 2-amino-N-(4-(4-amino-7-methyl-7H-pyrrolo[2,3-d]pyrimidin-5-yl)-3-methylphenyl)-2-phenylacetamide]
- IC50 ([1]; Homo sapiens, HEK293, 2 h): 0.251 to 0.5 µM
- IC50 [2]: 0.101 to 0.25 µM

SMILES: Cc1nc(N)c2c(-c3ccc(NC(=O)C(O)c4cccc(F)c4)cc3C(F)(F)F)cn(C)c2n1 (centres unmarked) [Example 20, N-(4-(4-amino-2,7-dimethyl-7H-pyrrolo[2,3-d]pyrimidin-5-yl)-3-(trifluoromethyl)phenyl)-2-(3-fluorophenyl)-2-hydroxyacetamide]
- IC50 [1]: 1 to 2 µM
- IC50 [2]: 0.051 to 0.1 µM

SMILES: Cc1nc(N)c2c(-c3cnc(NC(=O)C(O)c4cccc(C(F)(F)F)c4)cc3C)cn(C)c2n1 (centres unmarked) [Example 131, N-(5-(4-amino-2,7-dimethyl-7H-pyrrolo[2,3-d]pyrimidin-5-yl)-4-methylpyridin-2-yl)-2-hydroxy-2-(3-(trifluoromethyl)phenyl)acetamide]
- IC50 [1]: 0.251 to 0.5 µM
- IC50 [2]: 0.026 to 0.05 µM

SMILES: Cc1ccccc1CC(=O)Nc1ccc(-c2cn(C)c3ncnc(N)c23)c(C)c1 [Example 142, N-(4-(4-amino-7-methyl-7H-pyrrolo[2,3-d]pyrimidin-5-yl)-3-methylphenyl)-2-(o-tolyl)acetamide]
- IC50 ([1]; Homo sapiens, HEK293, 2 h): 0.026 to 0.05 µM
- IC50 [2]: 0.001 to 0.025 µM

SMILES: Cc1cc(F)cc(C(O)C(=O)Nc2ccc(-c3cn(C)c4nc(C)nc(N)c34)c(C)c2)c1 (centres unmarked) [Example 57, N-(4-(4-amino-2,7-dimethyl-7H-pyrrolo[2,3-d]pyrimidin-5-yl)-3-methylphenyl)-2-(3-fluoro-5-methylphenyl)-2-hydroxyacetamide]
- IC50 [1]: 0.101 to 0.25 µM
- IC50 [2]: 0.026 to 0.05 µM

SMILES: Cc1nc(N)c2c(-c3ccc(NC(=O)C(O)c4cccc(F)c4)cc3Cl)cn(C)c2n1 (centres unmarked) [Example 91, N-(4-(4-amino-2,7-dimethyl-7H-pyrrolo[2,3-d]pyrimidin-5-yl)-3-chlorophenyl)-2-(3-fluorophenyl)-2-hydroxyacetamide]
- IC50 [1]: 0.501 to 1 µM
- IC50 [2]: 0.101 to 0.25 µM

SMILES: CCc1cccc(C(O)C(=O)Nc2ccc(-c3cn(C)c4nc(C)nc(N)c34)c(Cl)c2)c1 (centres unmarked) [Example 97, N-(4-(4-amino-2,7-dimethyl-7H-pyrrolo[2,3-d]pyrimidin-5-yl)-3-chlorophenyl)-2-(3-ethylphenyl)-2-hydroxyacetamide]
- IC50 [1]: 0.001 to 0.025 µM
- IC50 [2]: 0.001 to 0.025 µM

SMILES: Cc1nc(N)c2c(-c3ccc(NC(=O)C(O)c4ccccc4C(F)(F)F)cc3C)cn(C)c2n1 (centres unmarked) [Example 46, N-(4-(4-amino-2,7-dimethyl-7H-pyrrolo[2,3-d]pyrimidin-5-yl)-3-methylphenyl)-2-hydroxy-2-(2-(trifluoromethyl)phenyl)acetamide]
- IC50 ([1]; Homo sapiens, HEK293, 2 h): 2 to 3 µM
- IC50 [2]: 0.251 to 0.5 µM

SMILES: Cc1nc(N)c2c(-c3ccc(NC(=O)C(O)c4cccc(F)c4)cc3C(F)(F)F)cn(C)c2n1 (centres unmarked) [Example 19, N-(4-(4-amino-2,7-dimethyl-7H-pyrrolo[2,3-d]pyrimidin-5-yl)-3-(trifluoromethyl)phenyl)-2-(3-fluorophenyl)-2-hydroxyacetamide]
- IC50 [1]: 0.101 to 0.25 µM
- IC50 [2]: 0.001 to 0.025 µM

SMILES: Cc1nc(N)c2c(-c3ccc(NC(=O)C(O)c4cccc(F)c4)c(F)c3)cn(C)c2n1 (centres unmarked) [Example 89, N-(4-(4-amino-2,7-dimethyl-7H-pyrrolo[2,3-d]pyrimidin-5-yl)-2-fluorophenyl)-2-(3-fluorophenyl)-2-hydroxyacetamide]
- IC50 [1]: 2 to 3 µM
- IC50 [2]: 0.251 to 0.5 µM

SMILES: Cc1nc(N)c2c(-c3ccc(NC(=O)C(O)c4ccccc4C(F)(F)F)cc3F)cn(C)c2n1 (centres unmarked) [Example 77, N-(4-(4-amino-2,7-dimethyl-7H-pyrrolo[2,3-d]pyrimidin-5-yl)-3-fluorophenyl)-2-hydroxy-2-(2-(trifluoromethyl)phenyl)acetamide]
- IC50 ([1]; Homo sapiens, HEK293, 2 h): 0.501 to 1 µM
- IC50 [2]: 0.026 to 0.05 µM

SMILES: COc1cc(NC(=O)C(O)c2cccc(F)c2)ccc1-c1cn(C)c2nc(C)nc(N)c12 (single isomer, unassigned) [Example 105, N-(4-(4-amino-2,7-dimethyl-7H-pyrrolo[2,3-d]pyrimidin-5-yl)-3-methoxyphenyl)-2-(3-fluorophenyl)-2-hydroxyacetamide]
- IC50 [1]: > 5 µM
- IC50 [2]: > 5 µM

SMILES: Cc1nc(N)c2c(-c3ccc(NC(=O)C(O)c4cc(F)cc(C(F)(F)F)c4)cc3F)cn(C)c2n1 (centres unmarked) [Example 88, N-(4-(4-amino-2,7-dimethyl-7H-pyrrolo[2,3-d]pyrimidin-5-yl)-3-fluorophenyl)-2-(3-fluoro-5-(trifluoromethyl)phenyl)-2-hydroxyacetamide]
- IC50 [1]: 0.251 to 0.5 µM
- IC50 [2]: 0.026 to 0.05 µM

SMILES: Cc1nc(N)c2c(-c3ccc(NC(=O)C(O)c4cccc(F)c4)cc3F)cn(C)c2n1 (centres unmarked) [Example 80, N-(4-(4-amino-2,7-dimethyl-7H-pyrrolo[2,3-d]pyrimidin-5-yl)-3-fluorophenyl)-2-(3-fluorophenyl)-2-hydroxyacetamide]
- IC50 [1]: 0.026 to 0.05 µM
- IC50 [2]: 0.001 to 0.025 µM

SMILES: Cc1nc(N)c2c(-c3ccc(NC(=O)C(O)c4cccc(Cl)c4)cc3C)cn(C)c2n1 (centres unmarked) [Example 38, N-(4-(4-amino-2,7-dimethyl-7H-pyrrolo[2,3-d]pyrimidin-5-yl)-3-methylphenyl)-2-(3-chlorophenyl)-2-hydroxyacetamide]
- IC50 [1]: 0.501 to 1 µM
- IC50 [2]: 0.051 to 0.1 µM

SMILES: Cc1nc(N)c2c(-c3c(C)cc(NC(=O)C(O)c4cccc(F)c4)cc3F)cn(C)c2n1 (centres unmarked) [Example 125, N-(4-(4-amino-2,7-dimethyl-7H-pyrrolo[2,3-d]pyrimidin-5-yl)-3-fluoro-5-methylphenyl)-2-(3-fluorophenyl)-2-hydroxyacetamide]
- IC50 ([1]; Homo sapiens, HEK293, 2 h): 0.051 to 0.1 µM
- IC50 [2]: 0.001 to 0.025 µM

SMILES: Cc1cc(NC(=O)C(O)c2cccc(C(F)(F)F)c2)ccc1-c1cn(C)c2ncnc(N)c12 (centres unmarked) [Example 47, N-(4-(4-amino-7-methyl-7H-pyrrolo[2,3-d]pyrimidin-5-yl)-3-methylphenyl)-2-hydroxy-2-(3-(trifluoromethyl)phenyl)acetamide]
- IC50 [1]: 0.001 to 0.025 µM
- IC50 [2]: 0.001 to 0.025 µM

SMILES: Cc1nc(N)c2c(-c3ccc(NC(=O)C(O)c4cccc(C(F)(F)F)c4)c(F)c3F)cn(C)c2n1 (centres unmarked) [Example 107, N-(4-(4-amino-2,7-dimethyl-7H-pyrrolo[2,3-d]pyrimidin-5-yl)-2,3-difluorophenyl)-2-hydroxy-2-(3-(trifluoromethyl)phenyl)acetamide]
- IC50 [1]: 0.001 to 0.025 µM
- IC50 [2]: 0.001 to 0.025 µM

SMILES: Cc1cc(NC(=O)C(O)c2cccc(F)c2)cc(F)c1-c1cn(C)c2ncnc(N)c12 (centres unmarked) [Example 124, N-(4-(4-amino-7-methyl-7H-pyrrolo[2,3-d]pyrimidin-5-yl)-3-fluoro-5-methylphenyl)-2-(3-fluorophenyl)-2-hydroxyacetamide]
- IC50 ([1]; Homo sapiens, HEK293, 2 h): 0.001 to 0.025 µM
- IC50 [2]: 0.001 to 0.025 µM

SMILES: CCc1nc(N)c2c(-c3ccc(NC(=O)C(O)c4cccc(F)c4)cc3C)cn(C)c2n1 (centres unmarked) [Example 67, N-(4-(4-amino-2-ethyl-7-methyl-7H-pyrrolo[2,3-d]pyrimidin-5-yl)-3-methylphenyl)-2-(3-fluorophenyl)-2-hydroxyacetamide]
- IC50 ([1]; Homo sapiens, HEK293, 2 h): 1 to 2 µM
- IC50 [2]: 0.101 to 0.25 µM

SMILES: Cc1nc(N)c2c(-c3ccc(NC(=O)C(O)c4cccc(Cl)c4)cc3F)cn(C)c2n1 (centres unmarked) [Example 82, N-(4-(4-amino-2,7-dimethyl-7H-pyrrolo[2,3-d]pyrimidin-5-yl)-3-fluorophenyl)-2-(3-chlorophenyl)-2-hydroxyacetamide]
- IC50 [1]: 0.001 to 0.025 µM
- IC50 [2]: 0.001 to 0.025 µM
